Data taken from publication PMC5218480 (PLoS ONE, 2017).

Test system: MV-4-11 cells
Experiment: Gene expression microarray analysis (Affymetrix PrimeView) and GSEA
Assay type: cell-based, human
Design: RFU PODN (11730768_x_at) / Fold change /veh PODN (11730768_x_at) / RFU LINC00158 (11744669_a_at) / Fold change /veh LINC00158 (11744669_a_at) / RFU DUSP10 (11751237_a_at) / Fold change /veh DUSP10 (11751237_a_at) / RFU ID3 (11757404_x_at) / Fold change /veh ID3 (11757404_x_at) / RFU PLEKHG5 (11737974_s_at) / Fold change /veh PLEKHG5 (11737974_s_at) / RFU LRRC4B (11730491_at) / Fold change /veh LRRC4B (11730491_at) / RFU GIMAP4 (11747438_a_at) / Fold change /veh GIMAP4 (11747438_a_at) / RFU KRT8 (11758183_x_at) / Fold change /veh KRT8 (11758183_x_at) / RFU CNN1 (11734310_a_at) / Fold change /veh CNN1 (11734310_a_at) / RFU VPS37D (11726825_at) / Fold change /veh VPS37D (11726825_at) / RFU C10orf10 (11716522_x_at) / Fold change /veh C10orf10 (11716522_x_at) / RFU KIR2DL2 /// KIR2DL4 /// KIR2DL5A /// KIR2DL5B /// KIR2DS1 /// KIR2DS2 /// KIR2DS3 /// KIR2DS4 /// KIR3DL3 /// KIR3DL3 /// KIR3DS1 (11738374_at) / Fold change /veh KIR2DL2 /// KIR2DL4 /// KIR2DL5A /// KIR2DL5B /// KIR2DS1 /// KIR2DS2 /// KIR2DS3 /// KIR2DS4 /// KIR3DL3 /// KIR3DL3 /// KIR3DS1 (11738374_at) / RFU C1QL1 (11718748_at) / Fold change /veh C1QL1 (11718748_at) / RFU TMPRSS4 (11747572_a_at) / Fold change /veh TMPRSS4 (11747572_a_at) / RFU HAMP (11756126_x_at) / Fold change /veh HAMP (11756126_x_at) / RFU RNFT2 (11725882_a_at) / Fold change /veh RNFT2 (11725882_a_at) / RFU NR4A2 (11747474_a_at) / Fold change /veh NR4A2 (11747474_a_at) / RFU ABCC12 (11746883_a_at) / Fold change /veh ABCC12 (11746883_a_at) / RFU TMEM136 (11760407_x_at) / Fold change /veh TMEM136 (11760407_x_at) / RFU CLDN22 /// WWC2 (11732394_at) / Fold change /veh CLDN22 /// WWC2 (11732394_at) / RFU HLA-DPB1 (11760878_x_at) / Fold change /veh HLA-DPB1 (11760878_x_at) / RFU SPINT1 (11716480_a_at) / Fold change /veh SPINT1 (11716480_a_at) / RFU GAP43 (11754022_s_at) / Fold change /veh GAP43 (11754022_s_at) / RFU A4GNT (11735810_at) / Fold change /veh A4GNT (11735810_at) / RFU PRB3 (11715151_x_at) / Fold change /veh PRB3 (11715151_x_at) / RFU TUBB4B (11761932_at) / Fold change /veh TUBB4B (11761932_at) / RFU CAPN14 (11732068_a_at) / Fold change /veh CAPN14 (11732068_a_at) / RFU TMCC2 (11721928_a_at) / Fold change /veh TMCC2 (11721928_a_at) / RFU IRGQ (11745062_a_at) / Fold change /veh IRGQ (11745062_a_at) / RFU FAM174B (11720279_a_at) / Fold change /veh FAM174B (11720279_a_at) / RFU TMPRSS4 (11748680_a_at) / Fold change /veh TMPRSS4 (11748680_a_at) / RFU FAM212B (11763350_a_at) / Fold change /veh FAM212B (11763350_a_at) / RFU PLEKHG5 (11743358_a_at) / Fold change /veh PLEKHG5 (11743358_a_at) / RFU ZSCAN30 (11745921_a_at) / Fold change /veh ZSCAN30 (11745921_a_at) / RFU CMKLR1 (11741424_a_at) / Fold change /veh CMKLR1 (11741424_a_at) / RFU LOC101060620 /// MAPK8IP1 (11723275_at) / Fold change /veh LOC101060620 /// MAPK8IP1 (11723275_at) / RFU SPTSSB (11747773_x_at) / Fold change /veh SPTSSB (11747773_x_at) / RFU PRSS12 (11739890_at) / Fold change /veh PRSS12 (11739890_at) / RFU BIN1 (11741810_x_at) / Fold change /veh BIN1 (11741810_x_at) / RFU WNT11 (11732464_a_at) / Fold change /veh WNT11 (11732464_a_at) / RFU C10orf10 (11716521_a_at) / Fold change /veh C10orf10 (11716521_a_at) / RFU C5orf56 (11738089_at) / Fold change /veh C5orf56 (11738089_at) / RFU CYB561 (11721691_x_at) / Fold change /veh CYB561 (11721691_x_at) / RFU ANKRD19P (11752326_a_at) / Fold change /veh ANKRD19P (11752326_a_at) / RFU OR2T12 /// OR2T33 /// OR2T8 (11738714_s_at) / Fold change /veh OR2T12 /// OR2T33 /// OR2T8 (11738714_s_at) / RFU VCAN (11748164_a_at) / Fold change /veh VCAN (11748164_a_at) / RFU JSRP1 (11732532_at) / Fold change /veh JSRP1 (11732532_at) / RFU KRTAP10-11 (11738290_x_at) / Fold change /veh KRTAP10-11 (11738290_x_at) / RFU MYO3A (11730013_a_at) / Fold change /veh MYO3A (11730013_a_at) / RFU EBF3 (11725865_a_at) / Fold change /veh EBF3 (11725865_a_at) / RFU CAMK2N1 (11719241_x_at) / Fold change /veh CAMK2N1 (11719241_x_at) / RFU C5orf56 (11738088_a_at) / Fold change /veh C5orf56 (11738088_a_at) / RFU OLFML3 (11715873_a_at) / Fold change /veh OLFML3 (11715873_a_at) / RFU LOC100653217 /// NTM (11731650_a_at) / Fold change /veh LOC100653217 /// NTM (11731650_a_at) / RFU MAPK11 (11762145_a_at) / Fold change /veh MAPK11 (11762145_a_at) / RFU FIZ1 (11724087_x_at) / Fold change /veh FIZ1 (11724087_x_at) / RFU OASL (11726364_x_at) / Fold change /veh OASL (11726364_x_at) / RFU SOX15 (11748057_x_at) / Fold change /veh SOX15 (11748057_x_at) / RFU CD79A (11719716_a_at) / Fold change /veh CD79A (11719716_a_at) / RFU HIST1H1D (11736915_at) / Fold change /veh HIST1H1D (11736915_at) / RFU CASKIN2 (11723855_a_at) / Fold change /veh CASKIN2 (11723855_a_at) / RFU LOC730098 (11760151_x_at) / Fold change /veh LOC730098 (11760151_x_at) / RFU OR4N2 (11742367_at) / Fold change /veh OR4N2 (11742367_at) / RFU PRRT2 (11749266_a_at) / Fold change /veh PRRT2 (11749266_a_at) / RFU SNX32 (11753110_a_at) / Fold change /veh SNX32 (11753110_a_at) / RFU CDHR5 (11726645_a_at) / Fold change /veh CDHR5 (11726645_a_at) / RFU RCAN1 (11760418_a_at) / Fold change /veh RCAN1 (11760418_a_at) / RFU FAM167A (11723789_a_at) / Fold change /veh FAM167A (11723789_a_at) / RFU FAM26E (11764081_at) / Fold change /veh FAM26E (11764081_at) / RFU ISYNA1 (11749810_s_at) / Fold change /veh ISYNA1 (11749810_s_at) / RFU ACY1 (11761880_at) / Fold change /veh ACY1 (11761880_at) / RFU 11764098_at / Fold change /veh 11764098_at / RFU SAMD14 (11745864_x_at) / Fold change /veh SAMD14 (11745864_x_at) / RFU NPB (11741838_a_at) / Fold change /veh NPB (11741838_a_at) / RFU TMPRSS6 (11731388_a_at) / Fold change /veh TMPRSS6 (11731388_a_at) / RFU KRTAP10-2 (11738614_at) / Fold change /veh KRTAP10-2 (11738614_at) / RFU ARHGAP8 /// PRR5-ARHGAP8 (11727945_x_at) / Fold change /veh ARHGAP8 /// PRR5-ARHGAP8 (11727945_x_at) / RFU KRTAP5-7 /// NADSYN1 (11734609_at) / Fold change /veh KRTAP5-7 /// NADSYN1 (11734609_at) / RFU RASL12 (11751679_a_at) / Fold change /veh RASL12 (11751679_a_at) / RFU CDKN2B (11736163_a_at) / Fold change /veh CDKN2B (11736163_a_at) / RFU PRF1 (11729649_at) / Fold change /veh PRF1 (11729649_at) / RFU, ZNF638 /// ZNF638-IT1 / Fold change vs veh, ZNF638 /// ZNF638-IT1 / RFU, PANK3 / Fold change vs veh, PANK3 / RFU, SH3YL1 / Fold change vs veh, SH3YL1 / RFU, ZEB2 / Fold change vs veh, ZEB2 / RFU, NRIP1 / Fold change vs veh, NRIP1 / RFU, PTTG1IP / Fold change vs veh, PTTG1IP / RFU, CAPN2 / Fold change vs veh, CAPN2 / RFU, MED14 / Fold change vs veh, MED14 / RFU, SNORA58 / Fold change vs veh, SNORA58 / RFU, C1orf63 / Fold change vs veh, C1orf63 / RFU, LRRFIP1 / Fold change vs veh, LRRFIP1 / RFU, NDUFAF7 / Fold change vs veh, NDUFAF7 / RFU, SLC12A2 / Fold change vs veh, SLC12A2 / RFU, IBTK / Fold change vs veh, IBTK / RFU, ESF1 / Fold change vs veh, ESF1 / Fold change vs veh, TMEM50B / RFU, TAOK1 / Fold change vs veh, TAOK1 / RFU, ACBD3 / Fold change vs veh, ACBD3 / RFU, TMA16 / Fold change vs veh, TMA16 / RFU, RWDD3 / Fold change vs veh, RWDD3 / RFU, BCAT1 / Fold change vs veh, BCAT1 / RFU, EDEM3 / Fold change vs veh, EDEM3 / RFU, TMEM33 / Fold change vs veh, TMEM33 / RFU, WDR75 / Fold change vs veh, WDR75 / RFU, AHCTF1 / Fold change vs veh, AHCTF1 / RFU, TFRC / Fold change vs veh, TFRC / RFU, ZDHHC17 / Fold change vs veh, ZDHHC17 / RFU, NOM1 / Fold change vs veh, NOM1 / RFU, ARL8B / Fold change vs veh, ARL8B / RFU, ZBTB11 / Fold change vs veh, ZBTB11 / RFU, TAMM41 / Fold change vs veh, TAMM41 / RFU, KIAA1704 /// LOC100996395 / Fold change vs veh, KIAA1704 /// LOC100996395 / RFU, ING1 / Fold change vs veh, ING1 / RFU, TRMT61B / Fold change vs veh, TRMT61B / RFU, FUBP3 / Fold change vs veh, FUBP3 / RFU, TP53 / Fold change vs veh, TP53 / RFU, TNKS2 / Fold change vs veh, TNKS2 / RFU, ZFP14 / Fold change vs veh, ZFP14 / RFU, ACTR2 / Fold change vs veh, ACTR2 / RFU, PPP3R1 / Fold change vs veh, PPP3R1 / RFU, PIK3R1 / Fold change vs veh, PIK3R1 / RFU, HNRNPA1 / Fold change vs veh, HNRNPA1 / RFU, RNF170 / Fold change vs veh, RNF170 / RFU, ZNF28 / Fold change vs veh, ZNF28 / RFU, RNGTT / Fold change vs veh, RNGTT / RFU, OGT / Fold change vs veh, OGT / RFU, BRD1 / Fold change vs veh, BRD1 / RFU, MARS / Fold change vs veh, MARS / RFU, ZNF655 / Fold change vs veh, ZNF655 / RFU, FAHD1 / Fold change vs veh, FAHD1 / RFU, BDP1 / Fold change vs veh, BDP1 / RFU, LRRCC1 / Fold change vs veh, LRRCC1 / RFU, ARID1A / Fold change vs veh, ARID1A / RFU, ZNF146 / Fold change vs veh, ZNF146 / RFU, ZNF330 / Fold change vs veh, ZNF330 / RFU, GPN3 / Fold change vs veh, GPN3 / RFU, C9orf123 / Fold change vs veh, C9orf123 / RFU, N4BP2L2 / Fold change vs veh, N4BP2L2 / RFU, ARFIP1 / Fold change vs veh, ARFIP1 / RFU, FAM179B / Fold change vs veh, FAM179B / RFU, BCL10 / Fold change vs veh, BCL10 / RFU, UHRF1BP1L / Fold change vs veh, UHRF1BP1L / RFU, BET1 / Fold change vs veh, BET1 / RFU, CNOT2 / Fold change vs veh, CNOT2 / RFU, ZNF268 / Fold change vs veh, ZNF268 / Fold change vs veh, ZNF507 / RFU, DGCR2 / Fold change vs veh, DGCR2 / RFU, WDSUB1 / Fold change vs veh, WDSUB1 / Fold change vs veh, HSP90B1 /// MIR3652 / RFU, ADSS / Fold change vs veh, ADSS / RFU, GK / Fold change vs veh, GK / RFU, ZNF148 / Fold change vs veh, ZNF148 / RFU, TAF9 / Fold change vs veh, TAF9 / RFU, SLC1A5 / Fold change vs veh, SLC1A5 / RFU, SLMO2 / Fold change vs veh, SLMO2 / RFU, ABCC4 / Fold change vs veh, ABCC4 / RFU, LOC101060439 /// RAP1B / Fold change vs veh, LOC101060439 /// RAP1B / RFU, RFX7 / Fold change vs veh, RFX7 / RFU, GTPBP10 / Fold change vs veh, GTPBP10 / RFU, CNEP1R1 / Fold change vs veh, CNEP1R1 / RFU, BIVM-ERCC5 /// ERCC5 / Fold change vs veh, BIVM-ERCC5 /// ERCC5 / RFU, ILF3 / Fold change vs veh, ILF3 / RFU 11762660_at / Fold change /veh 11762660_at / RFU VCAN (11757783_s_at) / Fold change /veh VCAN (11757783_s_at) / RFU DDX43 (11728927_at) / Fold change /veh DDX43 (11728927_at) / RFU KRT8 (11758188_x_at) / Fold change /veh KRT8 (11758188_x_at) / RFU NKD1 (11759106_at) / Fold change /veh NKD1 (11759106_at) / RFU SRD5A1 (11742802_a_at) / Fold change /veh SRD5A1 (11742802_a_at) / RFU TPSAB1 /// TPSB2 (11721975_s_at) / Fold change /veh TPSAB1 /// TPSB2 (11721975_s_at) / RFU GSTM3 (11746129_a_at) / Fold change /veh GSTM3 (11746129_a_at) / RFU IL23R (11737362_x_at) / Fold change /veh IL23R (11737362_x_at) / RFU TMEM51 (11727254_a_at) / Fold change /veh TMEM51 (11727254_a_at) / RFU PIWIL2 (11732686_x_at) / Fold change /veh PIWIL2 (11732686_x_at) / RFU ORM1 (11744905_x_at) / Fold change /veh ORM1 (11744905_x_at) / RFU CCDC152 (11743942_at) / Fold change /veh CCDC152 (11743942_at) / RFU ECM1 (11717891_a_at) / Fold change /veh ECM1 (11717891_a_at) / RFU IL23R (11748794_a_at) / Fold change /veh IL23R (11748794_a_at) / RFU TNFAIP8L3 (11732012_x_at) / Fold change /veh TNFAIP8L3 (11732012_x_at) / RFU MBOAT4 (11741988_at) / Fold change /veh MBOAT4 (11741988_at) / RFU 11764193_at / Fold change /veh 11764193_at / RFU TMEM53 (11763286_at) / Fold change /veh TMEM53 (11763286_at) / RFU MAGEB2 (11727129_at) / Fold change /veh MAGEB2 (11727129_at) / RFU TMEM200A (11744735_a_at) / Fold change /veh TMEM200A (11744735_a_at) / RFU CCDC152 (11751479_a_at) / Fold change /veh CCDC152 (11751479_a_at) / RFU FAM211A (11726209_a_at) / Fold change /veh FAM211A (11726209_a_at) / RFU RGS16 (11746705_a_at) / Fold change /veh RGS16 (11746705_a_at) / RFU VCAN (11755009_s_at) / Fold change /veh VCAN (11755009_s_at) / RFU RHOB (11743442_s_at) / Fold change /veh RHOB (11743442_s_at) / RFU RGS16 (11720943_a_at) / Fold change /veh RGS16 (11720943_a_at) / RFU RGS16 (11720944_at) / Fold change /veh RGS16 (11720944_at) / RFU, VPS4B / Fold change vs veh, VPS4B / RFU, CREB1 / Fold change vs veh, CREB1 / RFU, DNAJC13 / Fold change vs veh, DNAJC13 / RFU, GNAQ / Fold change vs veh, GNAQ / RFU, CDK5R1 / Fold change vs veh, CDK5R1 / RFU, ZRANB3 / Fold change vs veh, ZRANB3 / RFU, CUL4A / Fold change vs veh, CUL4A / RFU, CCNY / Fold change vs veh, CCNY / RFU, UFL1 / Fold change vs veh, UFL1 / RFU, COG3 / Fold change vs veh, COG3 / RFU, DIAPH2 / Fold change vs veh, DIAPH2 / RFU, SKA2 / Fold change vs veh, SKA2 / RFU, AFF3 / Fold change vs veh, AFF3 / RFU, LMF1 / Fold change vs veh, LMF1 / RFU, IPO11 / Fold change vs veh, IPO11 / RFU, DFFB / Fold change vs veh, DFFB / RFU, FOXP1 / Fold change vs veh, FOXP1 / RFU, CARD8 / Fold change vs veh, CARD8 / RFU, STRN3 / Fold change vs veh, STRN3 / RFU, ADK / Fold change vs veh, ADK / RFU, RASSF2 / Fold change vs veh, RASSF2 / RFU, WIPF1 / Fold change vs veh, WIPF1 / RFU, LARP1B / Fold change vs veh, LARP1B / RFU, RASA1 / Fold change vs veh, RASA1 / RFU, RB1 / Fold change vs veh, RB1 / RFU, PPFIA1 / Fold change vs veh, PPFIA1 / RFU, MAT2A / Fold change vs veh, MAT2A / RFU, CCT5 / Fold change vs veh, CCT5 / RFU, WDR92 / Fold change vs veh, WDR92 / RFU, CUX1 / Fold change vs veh, CUX1 / RFU, TTC7A / Fold change vs veh, TTC7A / RFU, TMEM135 / Fold change vs veh, TMEM135 / RFU, DEPTOR / Fold change vs veh, DEPTOR / RFU, CPM / Fold change vs veh, CPM / RFU, DNAJB6 / Fold change vs veh, DNAJB6 / RFU, CACNA2D3 / Fold change vs veh, CACNA2D3 / RFU, DTX4 / Fold change vs veh, DTX4 / RFU, TFCP2 / Fold change vs veh, TFCP2 / RFU, GMCL1 /// GMCL1P1 / Fold change vs veh, GMCL1 /// GMCL1P1 / RFU, AEBP2 / Fold change vs veh, AEBP2 / RFU, SNHG1 /// SNORD22 /// SNORD25 /// SNORD26 /// SNORD27 /// SNORD28 /// SNORD29 /// SNORD31 / Fold change vs veh, SNHG1 /// SNORD22 /// SNORD25 /// SNORD26 /// SNORD27 /// SNORD28 /// SNORD29 /// SNORD31 / Fold change (Aza/veh), C12orf56 (ProbeSet 11735607_a_at) / Fold change (ACY-1035/veh), C12orf56 (ProbeSet 11735607_a_at) / Fold change (Aza/veh), FGFR1OP (ProbeSet 11751329_s_at) / Fold change (ACY-1035/veh), FGFR1OP (ProbeSet 11751329_s_at) / Fold change (Aza/veh), VPS36 (ProbeSet 11739960_a_at) / Fold change (ACY-1035/veh), VPS36 (ProbeSet 11739960_a_at) / RFU SYPL1 (11715823_x_at) / Fold change /veh SYPL1 (11715823_x_at) / RFU IGFBP7 (11715501_s_at) / Fold change /veh IGFBP7 (11715501_s_at) / RFU REEP3 (11722064_at) / Fold change /veh REEP3 (11722064_at) / RFU IGLL1 (11728026_x_at) / Fold change /veh IGLL1 (11728026_x_at): dose or concentration left out as unconfirmed
Conditions: ProbeSet 11716865_a_at; LIST B

`Nc1ncn([C@@H]2O[C@H](CO)[C@@H](O)[C@H]2O)c(=O)n1` [azacitidine] was tested, and the “Fold change vs veh, SLC1A5” value was 0.87.
